Molecular target: Human cGAS amino acids 155-522 (Homo sapiens (Human), UniProt Q8N884)
Test: cGAS biochemical activity assay (ATP remaining, Kinase-Glo Max luminescence)
Conditions: human cGAS 155-522, ATP remaining (Kinase-Glo Max); read-out: cGAS IC50

Sequence of Human cGAS amino acids 155-522 (Q8N884 157-522): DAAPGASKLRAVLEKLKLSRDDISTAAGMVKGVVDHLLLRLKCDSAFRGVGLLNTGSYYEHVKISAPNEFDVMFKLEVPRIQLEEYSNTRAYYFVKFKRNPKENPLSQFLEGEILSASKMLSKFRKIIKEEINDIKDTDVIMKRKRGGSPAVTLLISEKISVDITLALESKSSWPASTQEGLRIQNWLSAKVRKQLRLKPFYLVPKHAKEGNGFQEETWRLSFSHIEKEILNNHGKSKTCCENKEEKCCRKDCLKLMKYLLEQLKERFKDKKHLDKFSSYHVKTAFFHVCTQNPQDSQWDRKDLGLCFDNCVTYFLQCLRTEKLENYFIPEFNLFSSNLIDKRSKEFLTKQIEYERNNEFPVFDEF

| Compound | IC50 |
| --- | --- |
| COc1cccc2oc(-c3c(C)[nH]c4c(-c5c(F)cccc5F)c(C(F)(F)F)nn4c3=O)nc12 [Compound C1133, 3-(2,6-difluorophenyl)-6-(4-methoxybenzo[d]oxazol-2-yl)-5-methyl-2-(trifluoromethyl)pyrazolo[1,5-a]pyrimidin-7(4H)-one] | 20 to 250 µM |
| COc1cccc2oc(-c3c(C)[nH]c4c(-c5ccccc5C#N)c(C(F)(F)F)nn4c3=O)nc12 [Compound C1148, 2-(6-(4-methoxybenzo[d]oxazol-2-yl)-5-methyl-7-oxo-2-(trifluoromethyl)-4,7-dihydropyrazolo[1,5-a]pyrimidin-3-yl)benzonitrile] | 20 to 250 µM |
| COc1nc(NC(C)=O)nc2oc(-c3c(C)[nH]c4c(-c5ccccc5)c(C(F)(F)F)nn4c3=O)nc12 [Compound C1150, N-(7-methoxy-2-(5-methyl-7-oxo-3-phenyl-2-(trifluoromethyl)-4,7-dihydropyrazolo[1,5-a]pyrimidin-6-yl)oxazolo[5,4-d]pyrimidin-5-yl)acetamide] | 20 to 250 µM |
| COCc1nc(-c2c(C)[nH]c3c(-c4ccccc4)c(C(F)(F)F)nn3c2=O)oc1C1CCCCC1 [Compound C1158, 6-(5-cyclohexyl-4-(methoxymethyl)oxazol-2-yl)-5-methyl-3-phenyl-2-(trifluoromethyl)pyrazolo[1,5-a]pyrimidin-7(4H)-one] | > 250 µM |
| COc1cccc2oc(-c3c(C)[nH]c4c(-c5ccc(C#N)cc5)c(C(F)(F)F)nn4c3=O)nc12 [Compound C1164, 4-(6-(4-methoxybenzo[d]oxazol-2-yl)-5-methyl-7-oxo-2-(trifluoromethyl)-4,7-dihydropyrazolo[1,5-a]pyrimidin-3-yl)benzonitrile] | > 250 µM |
| Cc1[nH]c2c(-c3ccccc3)c(C(F)(F)F)nn2c(=O)c1C1OC(=O)c2ccccc21 (stereo not drawn) [Compound C1168, 5-methyl-6-(3-oxo-1,3-dihydroisobenzofuran-1-yl)-3-phenyl-2-(trifluoromethyl)pyrazolo[1,5-a]pyrimidin-7(4H)-one] | 20 to 250 µM |
| COc1cccc2c1nc(-c1c(C)[nH]c3c(-c4ccccc4)c(C(F)(F)F)nn3c1=O)n2CC1CC1 [Compound C1189, 6-(1-(cyclopropylmethyl)-4-methoxy-1H-benzo[d]imidazol-2-yl)-5-methyl-3-phenyl-2-(trifluoromethyl)pyrazolo[1,5-a]pyrimidin-7(4H)-one] | 20 to 250 µM |
| COc1ccc(CN)c2oc(-c3c(C)[nH]c4c(-c5ccccc5)c(C(F)(F)F)nn4c3=O)nc12 [Compound C1191, 6-(7-(aminomethyl)-4-methoxybenzo[d]oxazol-2-yl)-5-methyl-3-phenyl-2-(trifluoromethyl)pyrazolo[1,5-a]pyrimidin-7(4H)-one] | > 250 µM |
| Cc1[nH]c2c(-c3ccccc3)c(C(F)(F)F)nn2c(=O)c1C1=N[C@H](C(=O)O)CO1 [Compound C1192, (S)-2-(5-methyl-7-oxo-3-phenyl-2-(trifluoromethyl)-4,7-dihydropyrazolo[1,5-a]pyrimidin-6-yl)-4,5-dihydrooxazole-4-carboxylic acid] | < 20 µM |
| COCCn1c(-c2c(C)[nH]c3c(-c4ccccc4)c(C(F)(F)F)nn3c2=O)nc2c(OC)cccc21 [Compound C1200, 6-(4-methoxy-1-(2-methoxyethyl)-1H-benzo[d]imidazol-2-yl)-5-methyl-3-phenyl-2-(trifluoromethyl)pyrazolo[1,5-a]pyrimidin-7(4H)-one] | 20 to 250 µM |
| COc1cccc2c1nc(-c1c(C)[nH]c3c(-c4ccccc4)c(C(F)(F)F)nn3c1=O)n2CCO [Compound C1201, 6-(1-(2-hydroxyethyl)-4-methoxy-1H-benzo[d]imidazol-2-yl)-5-methyl-3-phenyl-2-(trifluoromethyl)pyrazolo[1,5-a]pyrimidin-7(4H)-one] | 20 to 250 µM |
| Cc1[nH]c2c(-c3ccccc3)c(C(F)(F)F)nn2c(=O)c1N1Cc2ccccc2C1=O [Compound C1214, 5-methyl-6-(1-oxoisoindolin-2-yl)-3-phenyl-2-(trifluoromethyl)pyrazolo[1,5-a]pyrimidin-7(4H)-one] | 20 to 250 µM |
| COc1cccn2c(CO)c(-c3c(C)[nH]c4c(-c5ccccc5)c(C(F)(F)F)nn4c3=O)nc12 [Compound C1215, 6-(3-(hydroxymethyl)-8-methoxyimidazo[1,2-a]pyridin-2-yl)-5-methyl-3-phenyl-2-(trifluoromethyl)pyrazolo[1,5-a]pyrimidin-7(4H)-one] | 20 to 250 µM |
| Cc1[nH]c2c(-c3ccccc3)c(C(F)(F)F)nn2c(=O)c1N1Cc2ccc(N)cc2C1=O [Compound C1217, 6-(6-amino-1-oxoisoindolin-2-yl)-5-methyl-3-phenyl-2-(trifluoromethyl)pyrazolo[1,5-a]pyrimidin-7(4H)-one] | 20 to 250 µM |
| COc1cccc2c1CN(c1c(C)[nH]c3c(-c4ccccc4)c(C(F)(F)F)nn3c1=O)C2=O [Compound C1220, 6-(4-methoxy-1-oxoisoindolin-2-yl)-5-methyl-3-phenyl-2-(trifluoromethyl)pyrazolo[1,5-a]pyrimidin-7(4H)-one] | 20 to 250 µM |

Now from value to molecule:

| IC50 | Compound |
| --- | --- |
| 20 to 250 µM | COc1cccc2oc(-c3c(C)[nH]c4c(-c5cccnc5)c(C(F)(F)F)nn4c3=O)nc12 [Compound C1129, 6-(4-methoxybenzo[d]oxazol-2-yl)-5-methyl-3-(pyridin-3-yl)-2-(trifluoromethyl)pyrazolo[1,5-a]pyrimidin-7(4H)-one] |
| < 20 µM | COCCNC(=O)c1[nH]c2c(-c3ccccc3)c(C(F)(F)F)nn2c(=O)c1-c1nc2c(OC)cccc2o1 [Compound C1142, 6-(4-methoxybenzo[d]oxazol-2-yl)-N-(2-methoxyethyl)-7-oxo-3-phenyl-2-(trifluoromethyl)-4,7-dihydropyrazolo[1,5-a]pyrimidine-5-carboxamide] |
| 20 to 250 µM | COc1cccc2oc(-c3c(C(C)=O)[nH]c4c(-c5ccccc5)c(C(F)(F)F)nn4c3=O)nc12 [Compound C1144, 5-acetyl-6-(4-methoxybenzo[d]oxazol-2-yl)-3-phenyl-2-(trifluoromethyl)pyrazolo[1,5-a]pyrimidin-7(4H)-one] |
| 20 to 250 µM | COc1cccc2oc(-c3c(C)[nH]c4c(-c5ccc(C)cc5)c(C(F)(F)F)nn4c3=O)nc12 [Compound C1171] |
| < 20 µM | COc1cccc2oc(-c3c(C)[nH]c4c(-c5cccc(C)c5)c(C(F)(F)F)nn4c3=O)nc12 [Compound C1172, 6-(4-methoxybenzo[d]oxazol-2-yl)-5-methyl-3-(m-tolyl)-2-(trifluoromethyl)pyrazolo[1,5-a]pyrimidin-7(4H)-one] |
| 20 to 250 µM | COCCN(C)C(=O)c1[nH]c2c(-c3ccccc3)c(C(F)(F)F)nn2c(=O)c1-c1nc2c(OC)cccc2o1 [Compound C1179, 6-(4-methoxybenzo[d]oxazol-2-yl)-N-(2-methoxyethyl)-N-methyl-7-oxo-3-phenyl-2-(trifluoromethyl)-4,7-dihydropyrazolo[1,5-a]pyrimidine-5-carboxamide] |
| 20 to 250 µM | COc1cccc2oc(-c3c(C(=O)N4CCCCC4)[nH]c4c(-c5ccccc5)c(C(F)(F)F)nn4c3=O)nc12 [Compound C1186, 6-(4-methoxybenzo[d]oxazol-2-yl)-3-phenyl-5-(piperidine-1-carbonyl)-2-(trifluoromethyl)pyrazolo[1,5-a]pyrimidin-7(4H)-one] |
| < 20 µM | COc1cccc2oc(-c3c(C(=O)N[C@@H](C)CO)[nH]c4c(-c5ccccc5)c(C(F)(F)F)nn4c3=O)nc12 [Compound C1196, (S)-N-(1-hydroxypropan-2-yl)-6-(4-methoxybenzo[d]oxazol-2-yl)-7-oxo-3-phenyl-2-(trifluoromethyl)-4,7-dihydropyrazolo[1,5-a]pyrimidine-5-carboxamide] |
| 20 to 250 µM | COc1cccc2oc(-c3c(C(=O)N(C)CC(=O)O)[nH]c4c(-c5ccccc5)c(C(F)(F)F)nn4c3=O)nc12 [Compound C1197, N-(6-(4-methoxybenzo[d]oxazol-2-yl)-7-oxo-3-phenyl-2-(trifluoromethyl)-4,7-dihydropyrazolo[1,5-a]pyrimidine-5-carbonyl)-N-methylglycine] |
| 20 to 250 µM | COc1cccc2oc(-c3c(COCC(N)=O)[nH]c4c(-c5ccccc5)c(C(F)(F)F)nn4c3=O)nc12 [Compound C1198, 2-((6-(4-methoxybenzo[d]oxazol-2-yl)-7-oxo-3-phenyl-2-(trifluoromethyl)-4,7-dihydropyrazolo[1,5-a]pyrimidin-5-yl)methoxy)acetamide] |
| 20 to 250 µM | CNC(=O)COCc1[nH]c2c(-c3ccccc3)c(C(F)(F)F)nn2c(=O)c1-c1nc2c(OC)cccc2o1 [Compound C1199, 2-((6-(4-methoxybenzo[d]oxazol-2-yl)-7-oxo-3-phenyl-2-(trifluoromethyl)-4,7-dihydropyrazolo[1,5-a]pyrimidin-5-yl)methoxy)-N-methylacetamide] |
| 20 to 250 µM | COc1cccc2oc(-c3c(C(=O)N4CCC[C@@H]4CO)[nH]c4c(-c5ccccc5)c(C(F)(F)F)nn4c3=O)nc12 [Compound C1207, (R)-5-(2-(hydroxymethyl)pyrrolidine-1-carbonyl)-6-(4-methoxybenzo[d]oxazol-2-yl)-3-phenyl-2-(trifluoromethyl)pyrazolo[1,5-a]pyrimidin-7(4H)-one] |
| 20 to 250 µM | COc1cccc2oc(-c3c(C(=O)N[C@H](CO)C(C)C)[nH]c4c(-c5ccccc5)c(C(F)(F)F)nn4c3=O)nc12 [Compound C1208, (S)-N-(1-hydroxy-3-methylbutan-2-yl)-6-(4-methoxybenzo[d]oxazol-2-yl)-7-oxo-3-phenyl-2-(trifluoromethyl)-4,7-dihydropyrazolo[1,5-a]pyrimidine-5-carboxamide] |
| < 20 µM | COc1cccc2oc(-c3c(C)[nH]c4c(-c5ccccc5)c(C(C)=O)nn4c3=O)nc12 [Compound C1210, 2-acetyl-6-(4-methoxybenzo[d]oxazol-2-yl)-5-methyl-3-phenylpyrazolo[1,5-a]pyrimidin-7(4H)-one] |
| 20 to 250 µM | COc1cccc2oc(-c3c(C(=O)NCCN(C)C)[nH]c4c(-c5ccccc5)c(C(F)(F)F)nn4c3=O)nc12 [Compound C1212, N-(2-(dimethylamino)ethyl)-6-(4-methoxybenzo[d]oxazol-2-yl)-7-oxo-3-phenyl-2-(trifluoromethyl)-4,7-dihydropyrazolo[1,5-a]pyrimidine-5-carboxamide] |

From patent publication US10738056B2 (Aduro BioTech, Inc., priority 2017, dated 2020)
